Laboratory results reported in patent US7488730B2, “N-(1,2,3,4-tetrahydronaphthalen-1-yl)-4-phenyl-1-piperazinealkylamide derivatives, and therapeutic use thereof as 5-HT7 receptor ligands” (Universita Degli Studi Di Bari, priority 2005, dated 2009).
Entries after “also recorded” stand apart in the source; their conditions may differ. Where a name gives a salt, the structure may show the parent alone.

Columns and labels:
[1] = target: T1, rat cloned 5-HT7 receptor (Rattus norvegicus, UniProt P32305); assay: Radioligand binding assay ([3H]-LSD) at rat cloned 5-HT7Rs; conditions: for Ki: [3H]-LSD, rat recombinant 5-HT7R expressed in HEK-293 cells
T1 construct: purchased PerkinElmer-NEN; host or cells: HEK-293
Description: Rat recombinant serotonin 5-HT7R expressed in HEK-293 cells were purchased from PerkinElmer-NEN (Betsville, Md., USA).
Radioligand Binding Assay at Rat Cloned 5-HT7Rs. Binding of [^3H]-LSD at rat cloned 5-HT7 receptor was performed according to a known method. In 1 mL of incubation buffer (50 mM Tris, 10 mM MgCl2 and 0.5 mM EDTA, pH 7.4) were suspended 30 μg of membranes, 2.5 nM [^3H]-LSD, the drugs or reference compound (six to nine concentrations). The samples were incubated for 60 min at 37° C. The incubation was stopped by rapid filtration on GF/A glass fiber filters (pre-soaked in 0.5% polyethylenimine for 30 min). The filters were washed with 3 ? 3 mL of ice-cold buffer (50 mM Tris, pH 7.4). Nonspecific binding was determined in the presence of 10 μM 5-CT. Approximately 90% of specific binding was determined under these conditions.

5-HT1A receptors = target: T2, 5-HT1A receptors (Rattus norvegicus, UniProt P19327); conditions: for Ki: read-out: Ki, nM 5-HT1A, [3H]-8-OH-DPAT, rat hippocampal membranes
T2 sequence (P19327 1-422): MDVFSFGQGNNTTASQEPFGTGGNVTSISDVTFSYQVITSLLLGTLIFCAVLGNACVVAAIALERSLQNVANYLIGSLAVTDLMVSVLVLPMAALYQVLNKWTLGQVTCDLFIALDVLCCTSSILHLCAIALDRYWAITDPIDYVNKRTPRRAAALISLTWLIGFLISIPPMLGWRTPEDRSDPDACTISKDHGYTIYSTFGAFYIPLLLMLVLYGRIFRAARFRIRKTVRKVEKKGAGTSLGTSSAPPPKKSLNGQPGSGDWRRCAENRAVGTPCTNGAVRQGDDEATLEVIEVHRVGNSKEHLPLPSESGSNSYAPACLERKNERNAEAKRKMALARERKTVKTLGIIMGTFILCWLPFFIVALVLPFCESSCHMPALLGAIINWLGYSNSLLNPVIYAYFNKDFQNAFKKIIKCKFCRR
Description: Radioligand Binding Assay at Rat Hippocampal Membranes 5-HT1A Receptors. Binding experiments were performed according to a known method. Rats were killed by decapitation, the brain was quickly removed, and the hippocampus was dissected. […] The homogenate was centrifuged at 48000 g for 15 min at 4° C. The supernatant was discarded, and the pellet was resuspended in 25 mL of buffer, then preincubated for 10 min at 37° C. The homogenate was centrifuged at 48000 g for 15 min at 4° C. The supernatant was discarded, and the final pellet was stored at −80° C. until used. […] For competitive inhibition experiments various concentrations of drugs studied were incubated. […] Samples were incubated at 37° C. for 20 min and then filtered on Whatman GF/B glass microfiber filters.
Statistical Analysis. […] The value for the inhibition constant, Ki, was calculated by using the Cheng-Prusoff equation.

5-HT2A receptors = 5-HT2A receptors (Rattus norvegicus, UniProt P14842); assay: Radioligand binding assay ([3H]-ketanserin) at rat cortex membranes 5-HT2A receptors; conditions: read-out: Ki, nM 5-HT2A; [3H]-ketanserin, rat cortex membranes
Description: Radioligand Binding Assay at Rat Cortex Membranes 5-HT2A Receptors. […] Rats were killed by decapitation, the brain was quickly removed, and the cortex was dissected. […] The homogenate was centrifuged at 2000 g for 10 min at 4° C. The supernatant was saved, and the pellet was resuspended in 25 mL of buffer. The surnatantes were collected and diluted 1:10 w/w with 10 mM Tris pH 7.4. The homogenate was centrifugated at 35000 g for 15 min at 4° C. The supernatant was discarded, and the final pellet was stored at −80° C. until used. […] For competitive inhibition experiments various concentrations of drugs studied were incubated. […] Samples were incubated at 37° C. for 15 min and then filtered on Whatman GF/B glass microfiber filters.
Statistical Analysis. […] PRISM® program. The value for the inhibition constant, Ki, was calculated by using the Cheng-Prusoff equation.

5-HT7 receptor = 5-HT7 receptor (Cavia porcellus, UniProt P50407); assay: Isolated guinea-pig ileum assay: relaxation of substance P-induced contraction; conditions: for 5-HT7 intrinsic activity (in words): isolated guinea-pig ileum; for Emax: read-out: Maximal Effect %; for Schild plot: vs SB-269970, p value in parentheses; for PA2 (vs SB-269970): in the presence of antagonist SB-269970 (0.1 μM-3 μM)
Chain of 5-HT7 receptor (P50407 whole entry): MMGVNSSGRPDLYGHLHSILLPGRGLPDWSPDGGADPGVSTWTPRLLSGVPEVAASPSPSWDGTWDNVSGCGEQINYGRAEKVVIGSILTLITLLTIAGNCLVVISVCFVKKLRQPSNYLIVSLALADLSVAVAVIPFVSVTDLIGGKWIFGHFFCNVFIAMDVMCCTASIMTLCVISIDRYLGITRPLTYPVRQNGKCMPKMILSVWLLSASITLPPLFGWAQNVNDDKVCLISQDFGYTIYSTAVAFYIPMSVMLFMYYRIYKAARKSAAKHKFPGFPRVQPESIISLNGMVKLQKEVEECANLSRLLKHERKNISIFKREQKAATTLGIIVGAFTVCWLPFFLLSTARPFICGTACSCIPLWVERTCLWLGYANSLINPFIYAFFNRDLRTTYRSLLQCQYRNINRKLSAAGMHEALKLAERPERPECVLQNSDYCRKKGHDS
Description: Isolated Guinea-Pig Ileum Assay. Guinea-pigs were anesthetized and then decapitated and the proximal ileum removed. […] Changes in tension of the tissue were recorded by Fort 10 Original WPI isometric transducer (2Biological Instruments, Italy) connected to a PowerLab/400 workstation. […] Tested compounds were added 3 min before substance P addition.
The isolated guinea pig ileum was equilibrated for 75 min with antagonist before constructing concentration-response curves of tested compounds.
Tissue responses were recorded as gram changes in isometric tension and expressed as percentage of reduction in the height of the contraction.
Agonist potencies, expressed as EC50, were obtained from non-linear iterative curve fitting by [sequence] PRISM®.

T1 sequence (P32305 whole entry): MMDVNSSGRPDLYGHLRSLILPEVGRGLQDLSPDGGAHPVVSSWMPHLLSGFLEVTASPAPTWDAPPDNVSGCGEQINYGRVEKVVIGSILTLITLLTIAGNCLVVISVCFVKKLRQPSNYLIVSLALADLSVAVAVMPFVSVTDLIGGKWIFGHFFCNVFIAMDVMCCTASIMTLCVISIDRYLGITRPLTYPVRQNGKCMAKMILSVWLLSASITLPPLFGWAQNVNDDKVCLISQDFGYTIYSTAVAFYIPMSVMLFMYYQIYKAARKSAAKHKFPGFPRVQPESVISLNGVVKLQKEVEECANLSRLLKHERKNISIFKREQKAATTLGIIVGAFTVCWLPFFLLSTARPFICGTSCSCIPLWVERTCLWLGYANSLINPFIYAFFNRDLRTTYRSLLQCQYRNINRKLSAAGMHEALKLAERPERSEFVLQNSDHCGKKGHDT
Chain of 5-HT2A receptors (P14842 whole entry): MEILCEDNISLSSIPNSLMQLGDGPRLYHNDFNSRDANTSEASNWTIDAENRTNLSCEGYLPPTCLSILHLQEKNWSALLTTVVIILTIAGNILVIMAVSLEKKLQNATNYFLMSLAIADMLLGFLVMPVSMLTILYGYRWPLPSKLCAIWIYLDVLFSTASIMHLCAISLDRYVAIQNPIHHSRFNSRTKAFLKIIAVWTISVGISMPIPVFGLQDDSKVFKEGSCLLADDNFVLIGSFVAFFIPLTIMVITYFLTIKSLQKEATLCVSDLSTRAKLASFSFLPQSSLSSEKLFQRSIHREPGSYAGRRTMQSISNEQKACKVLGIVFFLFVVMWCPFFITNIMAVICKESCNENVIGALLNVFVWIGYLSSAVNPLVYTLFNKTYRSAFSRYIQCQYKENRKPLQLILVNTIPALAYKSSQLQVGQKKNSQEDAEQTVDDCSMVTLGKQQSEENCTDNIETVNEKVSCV

Row | Compound | Ki [1] | Ki (5-HT1A receptors) | Ki (5-HT2A receptors) | also measured
1 | COc1cc(Cl)ccc1N1CCN(CCCCCC(=O)NC2CCCc3ccccc32)CC1 (stereo not shown) [Compound 35] | 122 ± 14 nM | 332 ± 27 nM | 7170 ± 150 nM | –
2 | COc1ccc2c(c1)C(NC(=O)CCCCN1CCN(c3ccccc3OC)CC1)CCC2 (stereo not shown) (as salt: HCl) (hydrate or solvate) [Compound 21] | – | – | – | melting point: 187 to 188 °C
3 | COc1ccc2c(c1)C(NC(=O)CCCCN1CCN(c3ccccc3OC)CC1)CCC2 (stereo not shown) [Compound 21] | 38.4 ± 4.6 nM | 78.9 ± 6.3 nM | – | –
4 | CC(=O)c1cccc(N2CCN(CCCCCC(=O)NC3CCCc4ccccc43)CC2)c1 (stereo not shown) [Compound 41] | 496 ± 24 nM | 676 ± 32 nM | 1130 ± 200 nM | –
5 | O=C(CCCCCN1CCN(c2ccccc2O)CC1)NC1CCCc2ccccc21 (stereo not shown) [Compound 46, 4-(2-Hydroxyphenyl)-N-(1,2,3,4-tetrahydronaphthalen-1-yl)-1-piperazinehexanamide] | 11.4 ± 2.3 nM | 24 ± 6.3 nM | 3390 ± 225 nM | 5-HT7R affinity (in words) [1]: high affinity; 5-HT7 intrinsic activity (in words) (5-HT7 receptor): antagonist; Emax (5-HT7 receptor): 0%; Schild plot (5-HT7 receptor): 1.6 (p < 0.005)
6 | COc1ccc(OC)c(N2CCN(CCCCCC(=O)NC3CCCc4ccccc43)CC2)c1 (stereo not shown) (as salt: HCl) (hydrate or solvate) [Compound 36] | – | – | – | melting point: 124 to 126 °C
7 | COc1ccccc1N1CCN(CCCCC(=O)NC2CCCc3ccccc32)CC1 (stereo not shown) [Compound 27, 4-(2-Methoxyphenyl)-N-(1,2,3,4-tetrahydronaphthalen-1-yl)-1-piperazinepentanamide] | 6.05 ± 0.25 nM | 9 ± 0.7 nM | – | –
8 | N#Cc1ccccc1N1CCN(CCCCCC(=O)NC2CCCc3ccccc32)CC1 (stereo not shown) (as salt: HCl) (hydrate or solvate) [Compound 33] | – | – | – | melting point: 175 to 178 °C
9 | NCCc1c[nH]c2ccc(C(N)=O)cc12 [5-CT, reference compound] | 0.51 ± 0.01 nM | – | – | –
10 | COc1ccc2c(c1)CCCC2NC(=O)CCCCCN1CCN(c2ccccc2OC)CC1 (stereo not shown) [Compound 19] | 30 ± 3.15 nM | 55 ± 8 nM | – | –
11 | COc1ccccc1N1CCN(CCCCC(=O)NC2CCCc3c(OC)cccc32)CC1 (stereo not shown) [Compound 15] | 28.2 ± 4.2 nM | 54.4 ± 6.5 nM | – | –
12 | COc1ccccc1N1CCN(CCC(=O)NC2CCCc3c(OC)cccc32)CC1 (stereo not shown) [Compound 6] | 269 ± 18 nM | – | – | 5-HT7R affinity (in words) [1]: moderate affinities; 5-HT1A receptor affinity (in words) (5-HT1A receptors): moderate affinities
13 | COc1ccccc1N1CCN(CCCCC(=O)NC2CCCc3ccccc32)CC1 (stereo not shown) (as salt: HCl) (hydrate or solvate) [Compound 27, 4-(2-Methoxyphenyl)-N-(1,2,3,4-tetrahydronaphthalen-1-yl)-1-piperazinepentanamide] | – | – | – | melting point: 199 to 200 °C
14 | O=C(CCCCCN1CCN(c2ccccc2)CC1)NC1CCCc2ccccc21 (stereo not shown) [Compound 50] | 65.6 ± 4.7 nM | 128 ± 22 nM | 77.8 ± 5.7 nM | –
15 | CS(=O)(=O)c1ccccc1N1CCN(CCCCCC(=O)NC2CCCc3ccccc32)CC1 (stereo not shown) (as salt: HCl) (hydrate or solvate) [Compound 45] | – | – | – | melting point: 120 to 122 °C
16 | CC(=O)c1ccc(N2CCN(CCCCCC(=O)NC3CCCc4ccccc43)CC2)cc1 (stereo not shown) [Compound 42] | 2640 ± 130 nM | – | – | 5-HT7R affinity (in words) [1]: nearly devoid of 5-HT7R affinity
17 | COc1ccc2c(c1)C(NC(=O)CCCN1CCN(c3ccccc3OC)CC1)CCC2 (stereo not shown) [Compound 20] | 129 ± 5 nM | 160 ± 12 nM | – | –
18 | COc1ccccc1N1CCN(CCCCC(=O)NC2CCCc3cccc(OC)c32)CC1 (stereo not shown) [Compound 24] | 64 ± 12 nM | 72 ± 18 nM | – | –
19 | O=C(CCCCCN1CCN(c2ccccc2[N+](=O)[O-])CC1)NC1CCCc2ccccc21 (stereo not shown) [Compound 48] | 63.3 ± 7.5 nM | 183 ± 15 nM | 282 ± 35 nM | –

Row | Compound | Ki [1] | Ki (5-HT1A receptors) | Ki (5-HT2A receptors) | also measured
20 | COc1ccc2c(c1)CCCC2NC(=O)CCCN1CCN(c2ccccc2OC)CC1 (stereo not shown) [Compound 17] | 186 ± 40 nM | 257 ± 25 nM | – | –
21 | COc1ccc(OC)c(N2CCN(CCCCCC(=O)NC3CCCc4ccccc43)CC2)c1 (stereo not shown) [Compound 36] | 70.3 ± 5.2 nM | 911 ± 23 nM | 259 ± 20 nM | –
22 | COc1ccccc1N1CCN(CCCCCC(=O)NC2CCCc3ccccc32)CC1 (stereo not shown) [Compound 28, 4-(2-Methoxyphenyl)-N-(1,2,3,4-tetrahydronaphthalen-1-yl)-1-piperazinehexanamide] | 6.64 ± 0.6 nM | 8.6 ± 0.35 nM | – | 5-HT7R affinity (in words) [1]: high affinity; EC50 (5-HT7 receptor): 6320 ± 200 nM; PA2 (vs SB-269970) (5-HT7 receptor): 8.02 ± 1.40; 5-HT7 intrinsic activity (in words) (5-HT7 receptor): Full agonists; Emax (5-HT7 receptor): 91%; Schild plot (5-HT7 receptor): 1.0 (p < 0.0001)
23 | COc1ccccc1N1CCN(CCCCCC(=O)NC2CCCc3cccc(OC)c32)CC1 (stereo not shown) [Compound 25] | 31.4 ± 3.5 nM | 30 ± 2.6 nM | – | –
24 | N#Cc1ccccc1N1CCN(CCCCCC(=O)NC2CCCc3ccccc32)CC1 (stereo not shown) [Compound 33] | 48.7 ± 2.5 nM | 16.6 ± 1.4 nM | 700 ± 25 nM | 5-HT7R affinity (in words) [1]: reasonably good 5-HT7R affinity
25 | COc1ccccc1N1CCN(CCCC(=O)NC2CCCc3c(OC)cccc32)CC1 (stereo not shown) [Compound 7, N-(5-methoxy-1,2,3,4-tetrahydronaphthalen-1-yl)-4-(2-methoxyphenyl)-1-piperazinebutanamide] | 35 ± 3.2 nM | 254 ± 65 nM | – | 5-HT7R affinity (in words) [1]: moderate affinities; 5-HT1A receptor affinity (in words) (5-HT1A receptors): moderate affinities
26 | COc1cccc(N2CCN(CCCCCC(=O)NC3CCCc4ccccc43)CC2)c1 (stereo not shown) [Compound 37] | 119 ± 20 nM | 105 ± 12 nM | 142 ± 20 nM | –
27 | Cc1ccccc1N1CCN(CCCCCC(=O)NC2CCCc3ccccc32)CC1 (stereo not shown) [Compound 49, 4-(2-Methylphenyl)-N-(1,2,3,4-tetrahydronaphthalen-1-yl)-1-piperazinehexanamide] | 15.2 ± 3.2 nM | 279 ± 44 nM | 262 ± 24 nM | 5-HT7R affinity (in words) [1]: high affinity; EC50 (5-HT7 receptor): 1820 ± 720 nM; PA2 (vs SB-269970) (5-HT7 receptor): 7.80 ± 0.40; 5-HT7 intrinsic activity (in words) (5-HT7 receptor): Full agonists; Emax (5-HT7 receptor): 98%; Schild plot (5-HT7 receptor): 0.9 (p < 0.0001)
28 | CC(=O)c1ccccc1N1CCN(CCCCCC(=O)NC2CCCc3ccccc32)CC1 (stereo not shown) [Compound 34, 4-(2-Acetylphenyl)-N-(1,2,3,4-tetrahydronaphthalen-1-yl)-1-piperazinehexanamide] | 4.14 ± 0.8 nM | 3.8 ± 0.1 nM | 12200 ± 350 nM | 5-HT7R affinity (in words) [1]: reasonably good 5-HT7R affinity; also recorded: high affinity; EC50 (5-HT7 receptor): 2460 ± 700 nM; PA2 (vs SB-269970) (5-HT7 receptor): 7.60 ± 0.49; 5-HT7 intrinsic activity (in words) (5-HT7 receptor): partial agonist; Emax (5-HT7 receptor): 79%; Schild plot (5-HT7 receptor): 1.3 (p < 0.0001)
29 | COc1ccc(N2CCN(CCCCCC(=O)NC3CCCc4ccccc43)CC2)cc1 (stereo not shown) [Compound 38] | 2100 ± 150 nM | – | – | 5-HT7R affinity (in words) [1]: nearly devoid of 5-HT7R affinity
30 | COc1ccccc1N1CCN(CCCC(=O)NC2CCCc3cccc(OC)c32)CC1 (stereo not shown) [Compound 23, N-(8-Methoxy-1,2,3,4-tetrahydronaphthalen-1-yl)4-(2-methoxyphenyl)-1-piperazinebutanamide] | 154 ± 35 nM | 441 ± 20 nM | – | –
31 | N#Cc1cccc(N2CCN(CCCCCC(=O)NC3CCCc4ccccc43)CC2)c1 (stereo not shown) [Compound 39] | 97.8 ± 5.6 nM | 291 ± 15 nM | 909 ± 85 nM | –
32 | COc1ccccc1N1CCN(CCCCCC(=O)NC2CCCc3c(OC)cccc32)CC1 (stereo not shown) [Compound 16] | 20 ± 2.5 nM | 24.5 ± 1.8 nM | – | –
33 | COc1ccc2c(c1)CCCC2NC(=O)CCCCN1CCN(c2ccccc2OC)CC1 (stereo not shown) [Compound 18] | 43.1 ± 4.8 nM | 23.2 ± 2.3 nM | – | –
34 | N#Cc1ccc(N2CCN(CCCCCC(=O)NC3CCCc4ccccc43)CC2)cc1 (stereo not shown) [Compound 40] | 1400 ± 120 nM | – | – | 5-HT7R affinity (in words) [1]: nearly devoid of 5-HT7R affinity
35 | COc1ccc2c(c1)C(NC(=O)CCCCCN1CCN(c3ccccc3OC)CC1)CCC2 (stereo not shown) [Compound 22] | 41 ± 11 nM | 39 ± 6.5 nM | – | –
36 | O=C(CCCCCN1CCN(c2ccccc2Cl)CC1)NC1CCCc2ccccc21 (stereo not shown) [Compound 47] | 40.1 ± 6.7 nM | 96 ± 8 nM | 301 ± 12 nM | –
37 | COc1ccccc1N1CCN(CCCC(=O)NC2CCCc3ccccc32)CC1 (stereo not shown) [Compound 26, 4-(2-Methoxyphenyl)-N-(1,2,3,4-tetrahydronaphthalen-1-yl)-1-piperazinebutanamide] | 92 ± 12 nM | 245 ± 20 nM | – | –
